Where two headings read alike, the source gives them in different places.
Assays:
Test in all cases: biochemical
Set-up in all cases: DiscoveRx KINOMEscan active site-directed competition binding; percent of control kinase bound to immobilised ligand
PAK1 = PAK1 (Homo sapiens, UniProt Q13153)
DYRK1A = DYRK1A (Homo sapiens, UniProt Q13627)
SRPK1 = SRPK1 (Homo sapiens, UniProt Q96SB4)
SBK1 = SBK1 (Homo sapiens, UniProt Q52WX2)
ULK2 = biological target: T1, ULK2 (Homo sapiens, UniProt Q8IYT8)
T1 sequence (Q8IYT8 1-1036): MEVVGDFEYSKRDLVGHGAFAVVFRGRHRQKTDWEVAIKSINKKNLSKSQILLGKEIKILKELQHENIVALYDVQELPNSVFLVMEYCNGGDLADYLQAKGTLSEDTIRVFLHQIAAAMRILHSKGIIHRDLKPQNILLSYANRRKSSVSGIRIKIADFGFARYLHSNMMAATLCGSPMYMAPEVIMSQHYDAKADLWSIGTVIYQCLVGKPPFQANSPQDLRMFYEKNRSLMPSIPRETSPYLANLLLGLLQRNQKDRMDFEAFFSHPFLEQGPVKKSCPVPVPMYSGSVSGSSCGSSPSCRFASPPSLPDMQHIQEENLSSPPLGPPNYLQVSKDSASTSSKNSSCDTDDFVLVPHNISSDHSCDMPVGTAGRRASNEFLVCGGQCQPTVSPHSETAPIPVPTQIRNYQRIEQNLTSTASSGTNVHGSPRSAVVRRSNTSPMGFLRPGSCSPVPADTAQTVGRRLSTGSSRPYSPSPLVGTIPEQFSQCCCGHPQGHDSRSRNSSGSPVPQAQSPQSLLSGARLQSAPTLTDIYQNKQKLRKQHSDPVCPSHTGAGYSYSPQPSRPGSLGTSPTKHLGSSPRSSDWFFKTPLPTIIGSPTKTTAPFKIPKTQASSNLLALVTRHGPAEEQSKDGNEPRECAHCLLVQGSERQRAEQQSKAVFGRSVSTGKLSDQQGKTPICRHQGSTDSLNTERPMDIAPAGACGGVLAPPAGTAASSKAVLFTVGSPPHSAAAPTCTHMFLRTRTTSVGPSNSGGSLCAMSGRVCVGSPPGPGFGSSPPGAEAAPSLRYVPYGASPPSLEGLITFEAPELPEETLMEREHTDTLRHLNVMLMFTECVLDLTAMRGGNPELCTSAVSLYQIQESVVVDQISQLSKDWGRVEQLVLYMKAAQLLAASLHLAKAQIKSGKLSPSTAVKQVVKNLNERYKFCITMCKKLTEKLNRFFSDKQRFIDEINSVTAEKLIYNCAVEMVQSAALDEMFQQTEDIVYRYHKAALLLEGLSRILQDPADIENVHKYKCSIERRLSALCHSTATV

HIPK2 = HIPK2 (Homo sapiens, UniProt Q9H2X6)
ACVR1B = biological target: T2, ACVR1B (Homo sapiens, UniProt P36896)
T2 sequence (P36896 1-505): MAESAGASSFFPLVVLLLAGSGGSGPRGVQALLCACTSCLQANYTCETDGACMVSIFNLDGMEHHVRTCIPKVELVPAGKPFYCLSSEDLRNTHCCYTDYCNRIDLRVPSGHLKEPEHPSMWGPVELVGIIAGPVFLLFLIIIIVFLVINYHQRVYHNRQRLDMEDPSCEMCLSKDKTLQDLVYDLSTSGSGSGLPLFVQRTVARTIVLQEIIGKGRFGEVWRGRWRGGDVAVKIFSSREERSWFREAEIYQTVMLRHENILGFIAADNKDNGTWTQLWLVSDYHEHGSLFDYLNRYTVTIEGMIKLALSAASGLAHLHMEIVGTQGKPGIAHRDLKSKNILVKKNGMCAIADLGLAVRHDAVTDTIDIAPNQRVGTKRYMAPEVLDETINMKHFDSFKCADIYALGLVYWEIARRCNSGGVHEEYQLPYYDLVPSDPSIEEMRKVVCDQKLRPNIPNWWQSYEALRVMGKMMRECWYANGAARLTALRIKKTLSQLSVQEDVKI

PIP5K1A = PIP5K1A (Homo sapiens, UniProt Q99755)
PKAC-alpha = biological target: T3, PKAC-alpha (Homo sapiens, UniProt P17612)
T3 construct: gene PRKACA

PIK4CB = biological target: T4, PIK4CB (Homo sapiens, UniProt Q9UBF8)
T4 construct: gene PI4KB

IGF1R = IGF1R (Homo sapiens, UniProt P08069)
S6K1 = biological target: T5, S6K1 (Homo sapiens, UniProt P23443)
T5 construct: gene RPS6KB1

[1] = read-out: Talazoparib (BMN 673) / %Ctrl @ 10000nM
[2] = read-out: Olaparib / %Ctrl @ 10000nM
[3] = read-out: Niraparib (MK-4827) / %Ctrl @ 10000nM
[4] = read-out: Rucaparib / %Ctrl @ 10000nM, binding competition, % of control

Chain of PIP5K1A (Q99755 whole entry): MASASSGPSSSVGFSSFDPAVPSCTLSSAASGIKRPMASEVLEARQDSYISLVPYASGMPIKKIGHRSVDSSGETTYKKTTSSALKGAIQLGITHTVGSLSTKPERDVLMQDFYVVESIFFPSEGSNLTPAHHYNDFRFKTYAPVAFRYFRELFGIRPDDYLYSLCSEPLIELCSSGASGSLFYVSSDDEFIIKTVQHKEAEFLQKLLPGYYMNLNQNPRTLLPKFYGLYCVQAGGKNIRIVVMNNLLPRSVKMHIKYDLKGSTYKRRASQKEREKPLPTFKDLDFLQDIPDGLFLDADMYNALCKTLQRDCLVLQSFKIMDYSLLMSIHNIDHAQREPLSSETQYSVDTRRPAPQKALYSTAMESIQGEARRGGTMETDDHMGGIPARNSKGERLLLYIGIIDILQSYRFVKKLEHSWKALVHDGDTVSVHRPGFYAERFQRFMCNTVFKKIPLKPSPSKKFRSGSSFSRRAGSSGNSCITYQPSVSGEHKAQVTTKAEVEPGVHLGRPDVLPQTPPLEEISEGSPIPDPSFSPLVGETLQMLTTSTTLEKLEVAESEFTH
Chain of PAK1 (Q13153 whole entry): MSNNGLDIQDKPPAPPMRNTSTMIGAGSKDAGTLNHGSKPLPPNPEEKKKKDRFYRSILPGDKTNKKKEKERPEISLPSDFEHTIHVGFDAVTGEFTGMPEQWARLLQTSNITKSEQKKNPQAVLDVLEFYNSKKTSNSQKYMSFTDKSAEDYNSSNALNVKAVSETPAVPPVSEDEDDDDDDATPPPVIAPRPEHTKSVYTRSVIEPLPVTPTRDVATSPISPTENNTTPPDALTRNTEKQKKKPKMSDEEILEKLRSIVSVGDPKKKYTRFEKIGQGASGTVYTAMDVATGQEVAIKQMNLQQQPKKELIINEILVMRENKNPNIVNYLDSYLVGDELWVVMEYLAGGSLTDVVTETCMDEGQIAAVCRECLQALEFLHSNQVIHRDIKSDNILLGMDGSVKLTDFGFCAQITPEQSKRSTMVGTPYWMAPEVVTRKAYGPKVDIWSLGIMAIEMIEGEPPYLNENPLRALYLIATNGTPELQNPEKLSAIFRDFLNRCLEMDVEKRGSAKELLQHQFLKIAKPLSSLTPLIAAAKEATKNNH
Chain of HIPK2 (Q9H2X6 whole entry): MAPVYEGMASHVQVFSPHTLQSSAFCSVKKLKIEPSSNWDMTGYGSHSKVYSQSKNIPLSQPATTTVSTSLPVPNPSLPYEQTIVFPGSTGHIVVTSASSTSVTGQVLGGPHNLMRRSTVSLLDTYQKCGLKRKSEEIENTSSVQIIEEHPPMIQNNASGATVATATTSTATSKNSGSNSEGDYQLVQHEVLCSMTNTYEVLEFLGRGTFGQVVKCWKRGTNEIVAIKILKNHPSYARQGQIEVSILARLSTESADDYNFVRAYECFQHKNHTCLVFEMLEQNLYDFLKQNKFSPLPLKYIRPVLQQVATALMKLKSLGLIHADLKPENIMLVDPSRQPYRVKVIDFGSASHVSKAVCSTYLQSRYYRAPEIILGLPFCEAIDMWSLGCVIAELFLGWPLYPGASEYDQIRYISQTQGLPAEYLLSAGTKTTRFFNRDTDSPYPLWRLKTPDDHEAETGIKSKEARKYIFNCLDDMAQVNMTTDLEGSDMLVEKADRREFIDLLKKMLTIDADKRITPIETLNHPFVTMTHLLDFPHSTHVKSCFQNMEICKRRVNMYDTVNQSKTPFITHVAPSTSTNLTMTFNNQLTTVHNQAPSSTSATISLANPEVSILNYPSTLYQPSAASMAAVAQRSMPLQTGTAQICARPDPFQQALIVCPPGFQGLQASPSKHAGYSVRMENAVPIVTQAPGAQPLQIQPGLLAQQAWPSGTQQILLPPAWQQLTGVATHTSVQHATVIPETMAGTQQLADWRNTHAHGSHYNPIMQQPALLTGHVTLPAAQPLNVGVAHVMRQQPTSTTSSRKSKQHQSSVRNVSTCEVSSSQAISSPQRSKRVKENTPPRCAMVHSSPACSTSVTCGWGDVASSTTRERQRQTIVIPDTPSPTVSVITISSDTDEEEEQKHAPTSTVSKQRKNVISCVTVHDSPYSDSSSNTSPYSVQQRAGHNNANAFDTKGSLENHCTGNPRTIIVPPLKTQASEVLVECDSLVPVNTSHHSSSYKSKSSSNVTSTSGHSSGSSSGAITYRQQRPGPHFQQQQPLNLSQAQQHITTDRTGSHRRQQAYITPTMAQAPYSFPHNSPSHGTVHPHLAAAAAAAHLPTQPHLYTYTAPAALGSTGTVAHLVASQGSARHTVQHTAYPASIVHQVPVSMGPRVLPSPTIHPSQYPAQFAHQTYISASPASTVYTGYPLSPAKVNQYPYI
Chain of SBK1 (Q52WX2 whole entry): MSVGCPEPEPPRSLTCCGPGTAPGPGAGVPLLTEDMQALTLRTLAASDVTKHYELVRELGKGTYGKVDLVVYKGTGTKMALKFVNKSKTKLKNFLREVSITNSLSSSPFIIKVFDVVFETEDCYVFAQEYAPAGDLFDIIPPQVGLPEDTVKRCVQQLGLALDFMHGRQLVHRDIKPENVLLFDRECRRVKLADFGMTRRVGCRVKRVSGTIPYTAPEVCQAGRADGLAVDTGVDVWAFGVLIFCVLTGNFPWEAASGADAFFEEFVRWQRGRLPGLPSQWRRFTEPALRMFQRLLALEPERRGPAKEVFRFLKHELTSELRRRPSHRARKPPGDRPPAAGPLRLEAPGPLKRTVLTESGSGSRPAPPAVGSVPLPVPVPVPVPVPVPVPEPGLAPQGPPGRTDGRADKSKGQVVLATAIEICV
Chain of SRPK1 (Q96SB4 whole entry): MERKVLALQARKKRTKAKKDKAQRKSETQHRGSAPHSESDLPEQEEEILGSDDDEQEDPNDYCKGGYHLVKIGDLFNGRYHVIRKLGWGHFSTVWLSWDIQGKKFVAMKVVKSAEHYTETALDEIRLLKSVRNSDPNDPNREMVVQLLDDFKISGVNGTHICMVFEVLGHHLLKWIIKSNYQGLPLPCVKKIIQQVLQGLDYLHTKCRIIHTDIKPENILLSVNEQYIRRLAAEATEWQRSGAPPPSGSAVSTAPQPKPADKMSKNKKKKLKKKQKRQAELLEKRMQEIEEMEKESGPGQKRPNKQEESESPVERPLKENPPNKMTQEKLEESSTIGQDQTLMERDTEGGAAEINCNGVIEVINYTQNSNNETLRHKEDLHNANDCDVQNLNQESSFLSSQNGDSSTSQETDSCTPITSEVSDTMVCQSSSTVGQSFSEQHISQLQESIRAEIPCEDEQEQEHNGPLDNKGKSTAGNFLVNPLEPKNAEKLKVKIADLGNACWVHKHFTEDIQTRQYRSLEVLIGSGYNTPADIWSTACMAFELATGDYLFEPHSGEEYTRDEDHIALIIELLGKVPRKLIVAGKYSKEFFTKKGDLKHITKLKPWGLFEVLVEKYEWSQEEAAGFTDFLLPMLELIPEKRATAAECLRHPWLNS
Chain of IGF1R (P08069 whole entry): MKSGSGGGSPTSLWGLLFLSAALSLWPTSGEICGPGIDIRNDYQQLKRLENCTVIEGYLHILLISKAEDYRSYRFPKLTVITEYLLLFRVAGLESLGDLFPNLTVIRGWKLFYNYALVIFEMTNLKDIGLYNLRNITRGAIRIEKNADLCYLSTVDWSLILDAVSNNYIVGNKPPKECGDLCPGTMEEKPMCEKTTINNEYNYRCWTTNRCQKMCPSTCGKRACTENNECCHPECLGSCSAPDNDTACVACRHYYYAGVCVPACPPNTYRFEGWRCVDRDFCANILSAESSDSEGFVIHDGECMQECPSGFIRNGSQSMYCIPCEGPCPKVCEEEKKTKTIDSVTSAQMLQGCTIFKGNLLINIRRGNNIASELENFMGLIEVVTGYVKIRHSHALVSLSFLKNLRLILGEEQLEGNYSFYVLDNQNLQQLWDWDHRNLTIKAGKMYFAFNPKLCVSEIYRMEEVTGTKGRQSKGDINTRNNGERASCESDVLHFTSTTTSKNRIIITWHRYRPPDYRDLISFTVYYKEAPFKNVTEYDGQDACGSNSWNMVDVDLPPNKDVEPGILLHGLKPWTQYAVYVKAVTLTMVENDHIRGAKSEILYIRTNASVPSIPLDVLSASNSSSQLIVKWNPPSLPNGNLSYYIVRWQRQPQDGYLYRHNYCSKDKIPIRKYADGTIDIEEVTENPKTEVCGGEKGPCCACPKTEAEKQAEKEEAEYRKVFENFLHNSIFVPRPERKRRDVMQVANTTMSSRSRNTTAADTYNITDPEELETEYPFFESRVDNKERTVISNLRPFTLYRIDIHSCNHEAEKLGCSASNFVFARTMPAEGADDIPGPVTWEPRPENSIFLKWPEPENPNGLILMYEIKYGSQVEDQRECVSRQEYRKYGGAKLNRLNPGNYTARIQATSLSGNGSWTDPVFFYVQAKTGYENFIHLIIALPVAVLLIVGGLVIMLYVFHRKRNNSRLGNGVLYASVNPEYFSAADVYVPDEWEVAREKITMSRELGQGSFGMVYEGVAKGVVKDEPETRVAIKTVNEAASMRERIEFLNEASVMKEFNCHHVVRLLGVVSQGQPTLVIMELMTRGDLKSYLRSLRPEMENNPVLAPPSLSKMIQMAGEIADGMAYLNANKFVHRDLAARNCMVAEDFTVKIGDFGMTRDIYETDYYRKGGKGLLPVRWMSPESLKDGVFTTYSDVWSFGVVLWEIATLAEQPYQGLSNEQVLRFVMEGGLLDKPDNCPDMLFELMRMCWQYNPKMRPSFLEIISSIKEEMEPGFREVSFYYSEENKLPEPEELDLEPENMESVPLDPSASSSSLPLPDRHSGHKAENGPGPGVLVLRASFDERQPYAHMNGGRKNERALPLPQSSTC

Work on `Cn1ncnc1[C@H]1c2n[nH]c(=O)c3cc(F)cc(c23)N[C@@H]1c1ccc(F)cc1` [Talazoparib] yielded a percent of control binding at 10 µM (PAK1; [1]) of 93%, a percent of control binding at 10 µM (DYRK1A; [1]) of 94% and a percent of control binding at 10 µM (SRPK1; [1]) of 100%. For the same molecule, the percent of control binding at 10 µM (SBK1; [1]) was 96%, the percent of control binding at 10 µM (ULK2; [1]) was 100% and the percent of control binding at 10 µM (HIPK2; [1]) was 99%. The percent of control binding at 10 µM (ACVR1B; [1]) was 77%, the percent of control binding at 10 µM (PIP5K1A; [1]) was 88% and the percent of control binding at 10 µM (PKAC-alpha; [1]) was 88%. The percent of control binding at 10 µM (PIK4CB; [1]) was 81%, the percent of control binding at 10 µM (IGF1R; [1]) was 87% and the percent of control binding at 10 µM (S6K1; [1]) was 62%.
`O=C(c1cc(Cc2n[nH]c(=O)c3ccccc23)ccc1F)N1CCN(C(=O)C2CC2)CC1` [Olaparib] gave a percent of control binding at 10 µM (PAK1; [2]) of 91%, a percent of control binding at 10 µM (DYRK1A; [2]) of 95% and a percent of control binding at 10 µM (SRPK1; [2]) of 98%. It also gave a percent of control binding at 10 µM (SBK1; [2]) of 95%, a percent of control binding at 10 µM (ULK2; [2]) of 85% and a percent of control binding at 10 µM (HIPK2; [2]) of 95%. The percent of control binding at 10 µM (ACVR1B; [2]) was 100%, the percent of control binding at 10 µM (PIP5K1A; [2]) was 100% and the percent of control binding at 10 µM (PKAC-alpha; [2]) was 100%. The percent of control binding at 10 µM (PIK4CB; [2]) was 94%, the percent of control binding at 10 µM (IGF1R; [2]) was 95% and the percent of control binding at 10 µM (S6K1; [2]) was 73%.
`NC(=O)c1cccc2cn(-c3ccc([C@@H]4CCCNC4)cc3)nc12` [Niraparib] showed a percent of control binding at 10 µM (PAK1; [3]) of 86%, a percent of control binding at 10 µM (DYRK1A; [3]) of 0.2% and a percent of control binding at 10 µM (SRPK1; [3]) of 77%. It also gave a percent of control binding at 10 µM (SBK1; [3]) of 83%, a percent of control binding at 10 µM (ULK2; [3]) of 93% and a percent of control binding at 10 µM (HIPK2; [3]) of 1.1%. For the same molecule, the percent of control binding at 10 µM (ACVR1B; [3]) was 95%, the percent of control binding at 10 µM (PIP5K1A; [3]) was 100% and the percent of control binding at 10 µM (PKAC-alpha; [3]) was 86%. For the same molecule, the percent of control binding at 10 µM (PIK4CB; [3]) was 94%, the percent of control binding at 10 µM (IGF1R; [3]) was 97% and the percent of control binding at 10 µM (S6K1; [3]) was 94%.
For `CNCc1ccc(-c2[nH]c3cc(F)cc4c3c2CCNC4=O)cc1` [Rucaparib], the percent of control binding at 10 µM (PAK1; [4]) was 75%, the percent of control binding at 10 µM (DYRK1A; [4]) was 0.4% and the percent of control binding at 10 µM (SRPK1; [4]) was 97%. It also gave a percent of control binding at 10 µM (SBK1; [4]) of 65%, a percent of control binding at 10 µM (ULK2; [4]) of 74% and a percent of control binding at 10 µM (HIPK2; [4]) of 5.1%. It also gave a percent of control binding at 10 µM (ACVR1B; [4]) of 89%, a percent of control binding at 10 µM (PIP5K1A; [4]) of 100% and a percent of control binding at 10 µM (PKAC-alpha; [4]) of 100%. For the same molecule, the percent of control binding at 10 µM (PIK4CB; [4]) was 78%, the percent of control binding at 10 µM (IGF1R; [4]) was 98% and the percent of control binding at 10 µM (S6K1; [4]) was 60%.
